{"source": "the supplement of paper PMC10307832"}
{"compound": "COC1=CC=C(C=C1)COC2=C(C=C(C=C2)CC3=CN=C(N=C3N)N)OC [GW-2580] + COc1cc2c(Oc3ccc(NC(=O)C4(C(=O)Nc5ccc(F)cc5)CC4)cc3F)ccnc2cc1OCCCN1CCOCC1 [Foretinib] (partner 0.25 µM)", "assay": "relative viability (nuclei count vs DMSO), 5 days (fraction); higher = more cells survive", "details": "first compound 0.8 µM", "how_it_was_run": "(§1)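 Values are medians from duplicate plates. Each reflects relative viability, defined as the nuclei count of treated wells over that of vehicle wells. Lung cancer cell lines in 1536-well plates were pin-tool dosed one day after seeding with one drug alone or with a fixed anchor-drug dose plus five library-drug doses (not always all listed) in √10 steps, then fixed, stained and imaged at 4× after 5 days.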"}
{"cell line": "SW 1573", "relative viability": 1.02}
{"cell line": "NCI-H838", "relative viability": 1.14}
{"cell line": "LCLC-103H", "relative viability": 0.865}
{"cell line": "NCI-H520", "relative viability": 0.627}
{"cell line": "NCI-H2126", "relative viability": 1.13}
{"cell line": "EMC-BAC-2", "relative viability": 1.11}
{"cell line": "NCI-H2085", "relative viability": 0.895}
{"cell line": "Calu-6", "relative viability": 0.898}
{"cell line": "HCC-366", "relative viability": 0.879}
{"cell line": "NCI-H1666", "relative viability": 0.936}
{"cell line": "NCI-H596", "relative viability": 0.88}
{"cell line": "LK-2", "relative viability": 1.45}
{"cell line": "NCI-H2087", "relative viability": 1.25}
{"cell line": "SK-MES-1", "relative viability": 0.934}
{"cell line": "H3255", "relative viability": 0.835}
{"cell line": "COR-L23", "relative viability": 1.15}
{"cell line": "COR-L 105", "relative viability": 1.19}
{"cell line": "IA-LM", "relative viability": 1.28}
{"cell line": "LOU-NH91", "relative viability": 0.969}
{"cell line": "ChaGo-K-1", "relative viability": 0.965}
{"cell line": "A549", "relative viability": 0.577}
{"cell line": "HCC-78", "relative viability": 0.605}
{"cell line": "NCI-H2009", "relative viability": 1.25}
{"cell line": "NCI-H661", "relative viability": 0.987}
{"cell line": "SK-LU-1", "relative viability": 0.934}
{"cell line": "NCI-H1299", "relative viability": 1.09}
{"cell line": "NCI-H2228", "relative viability": 0.95}
{"cell line": "NCI-H2023", "relative viability": 1.02}
{"cell line": "NCI-H1563", "relative viability": 0.961}
{"compound": "COC1=CC=C(C=C1)COC2=C(C=C(C=C2)CC3=CN=C(N=C3N)N)OC [GW-2580] + COc1cc2c(Oc3ccc(NC(=O)C4(C(=O)Nc5ccc(F)cc5)CC4)cc3F)ccnc2cc1OCCCN1CCOCC1 [Foretinib] (partner 0.25 µM)", "assay": "relative viability (nuclei count vs DMSO), 5 days (fraction); higher = more cells survive", "details": "first compound 2.53 µM", "how_it_was_run": "as §1"}
{"cell line": "NCI-H2342", "relative viability": 0.942}
{"cell line": "NCI-H1623", "relative viability": 0.725}
{"cell line": "NCI-H727", "relative viability": 0.834}
{"cell line": "NCI-H1650", "relative viability": 1.19}
{"cell line": "EBC-1", "relative viability": 0.107}
{"cell line": "NCI-H1703", "relative viability": 0.346}
{"cell line": "NCI-H1993", "relative viability": 0.686}
{"cell line": "SW 1573", "relative viability": 1.02}
{"cell line": "NCI-H838", "relative viability": 0.997}
{"cell line": "LCLC-103H", "relative viability": 0.83}
{"cell line": "NCI-H520", "relative viability": 0.783}
{"cell line": "NCI-H2126", "relative viability": 0.925}
{"cell line": "EMC-BAC-2", "relative viability": 1.04}
{"cell line": "NCI-H2085", "relative viability": 1.08}
{"cell line": "Calu-6", "relative viability": 0.915}
{"cell line": "HCC-366", "relative viability": 0.964}
{"cell line": "NCI-H1666", "relative viability": 0.948}
{"cell line": "NCI-H596", "relative viability": 0.957}
{"cell line": "LK-2", "relative viability": 1.05}
{"cell line": "NCI-H2087", "relative viability": 1.2}
{"cell line": "SK-MES-1", "relative viability": 0.962}
{"cell line": "H3255", "relative viability": 0.742}
{"cell line": "COR-L23", "relative viability": 1.09}
{"cell line": "COR-L 105", "relative viability": 1.05}
{"cell line": "IA-LM", "relative viability": 1.26}
{"cell line": "LOU-NH91", "relative viability": 0.94}
{"cell line": "ChaGo-K-1", "relative viability": 0.924}
{"cell line": "A549", "relative viability": 1.06}
{"cell line": "HCC-78", "relative viability": 0.513}
{"cell line": "NCI-H2009", "relative viability": 1.21}
{"cell line": "NCI-H661", "relative viability": 1.03}
{"cell line": "SK-LU-1", "relative viability": 0.708}
{"cell line": "NCI-H1299", "relative viability": 0.981}
{"cell line": "NCI-H2228", "relative viability": 0.879}
{"cell line": "NCI-H2023", "relative viability": 0.841}
{"cell line": "NCI-H1563", "relative viability": 0.886}
{"compound": "COC1=CC=C(C=C1)COC2=C(C=C(C=C2)CC3=CN=C(N=C3N)N)OC [GW-2580] + COc1cc2c(Oc3ccc(NC(=O)C4(C(=O)Nc5ccc(F)cc5)CC4)cc3F)ccnc2cc1OCCCN1CCOCC1 [Foretinib] (partner 0.25 µM)", "assay": "relative viability (nuclei count vs DMSO), 5 days (fraction); higher = more cells survive", "details": "first compound 8 µM", "how_it_was_run": "as §1"}
{"cell line": "NCI-H2342", "relative viability": 1.07}
{"cell line": "NCI-H1623", "relative viability": 0.986}
{"cell line": "NCI-H727", "relative viability": 0.777}
{"cell line": "NCI-H1650", "relative viability": 1.05}
{"cell line": "EBC-1", "relative viability": 0.0908}
{"cell line": "NCI-H1703", "relative viability": 0.342}
{"cell line": "NCI-H1993", "relative viability": 0.746}
{"cell line": "SW 1573", "relative viability": 0.852}
{"cell line": "NCI-H838", "relative viability": 1.03}
{"cell line": "LCLC-103H", "relative viability": 0.676}
{"cell line": "NCI-H520", "relative viability": 0.762}
